Data on 13 compounds can be found in patent US10668064B2, “Polycyclic-carbamoylpyridone compounds and their pharmaceutical use” (Gilead Sciences, Inc., priority 2013, dated 2020).

The structures appear in SMILES notation.

One series relates to HIV-IIIb. In words: Antiviral assay in MT4 cells. It is filed as cell-based. Conditions: Human immunodeficiency virus 1, 120 h; MT4 cells infected with HIV-IIIb, 5 days incubation, CellTiter-Glo; average over time; read-out: EC50 nM in MT-4. Here is the method:
(§1) For the antiviral assay utilizing MT4 cells, 0.4 μL of 189× test concentration of 3-fold serially diluted compound in DMSO was added to 40 μL of cell growth medium (RPMI 1640, 10% FBS, 1% penicillin/streptomycin, 1% L-Glutamine, 1% HEPES) in each well of 384-well assay plates (10 concentrations) in quadruplicate. 1 mL aliquots of 2×10^6 MT4 cells are pre-infected for 1 and 3 hours respectively at 37° C. with 25 μL (MT4) or of either cell growth medium (mock-infected) or a fresh 1:250 dilution of an HIV-IIIb concentrated ABI stock (0.004 m.o.i. for MT4 cells). Infected and uninfected cells are diluted in cell growth medium and 35 μL of 2000 (for MT4) cells is added to each well of the assay plates. Assay plates were then incubated in a 37° C. incubator. After 5 days of incubation, 25 μL of 2× concentrated CellTiter-Glo™ Reagent (catalog # G7573, Promega Biosciences, Inc., Madison, Wis.) was added to each well of the assay plate. Cell lysis was carried out by incubating at room temperature for 2-3 minutes, and then chemiluminescence was read using the Envision reader (PerkinElmer).

A further series can be described thus: in vitro. The format is cell-based. Conditions: human. Here is the method: as §1

`O=C(NCc1c(F)cc(F)cc1F)c1cn2c(c(O)c1=O)C(=O)N1[C@H](C2)[C@@H]2C[C@H]1[C@H]1C[C@@H]21` [Compound 9, (1aS,2S,10aS,11R,11aR)-5-hydroxy-4,6-dioxo-N-(2,4,6-trifluorobenzyl)-1a,2,4,6,10,10a,11,11a-octahydro-1H-2,11-methanocyclopropa[4,5]pyrido[1,2-a]pyrido[1,2-d]pyrazine-7-carboxamide]: the EC50 in the series with HIV-IIIb was 1.4 nM. Besides, the CC50 at 5 days in “in vitro” is 10.7 µM.
On to `O=C(NCc1cc(F)c(F)cc1F)c1cn2c(c(O)c1=O)C(=O)N1C3CC([C@@H]4C[C@H]34)[C@@H]1C2` (stereo partly drawn) [Compound 13, (1aR,2R,10aR,11S,11a5)-5-hydroxy-4,6-dioxo-N-(2,4,5-trifluorobenzyl)-1a,2,4,6,10,10a,11,11a-octahydro-1H-2,11-methanocyclopropa[4,5]pyrido[1,2-a]pyrido[1,2-d]pyrazine-7-carboxamide], for which the EC50 in the series with HIV-IIIb is 2.3 nM. Half-maximal cytotoxicity in “in vitro” (CC50 at 5 days) was put at 7.05 µM.
`O=C(N[C@@H](c1ccc(F)cc1F)C(F)(F)F)c1cn2c(c(O)c1=O)C(=O)N1[C@H](C2)O[C@@H]2C[C@H]1[C@H]1C[C@H]12` [Compound 2, (1aR,2R,3aS,12S,12aS)-N-((S)-1-(2,4-difluorophenyl)-2,2,2-trifluoroethyl)-9-hydroxy-8,10-dioxo-1a,2,3a,4,8,10,12,12a-octahydro-1H-2,12-methanocyclopropa[e]pyrido[1′,2′:4,5]pyrazino[2,1-b][1,3]oxazepine-7-carboxamide]: the EC50 in the series on HIV-IIIb was found to be 10.7 nM. In the series “in vitro”, this compound came in with a CC50 at 5 days of 7.8 µM.
Consider `O=C(NCc1ccc(F)cc1F)c1cn2c(c(O)c1=O)C(=O)N1C(C2)O[C@@H]2C[C@H]1[C@H]1C[C@H]12` (stereo partly drawn) [Compound 6, (1aR,2R,3aS,12S,12a5)-N-(2,4-difluorobenzyl)-9-hydroxy-8,10-dioxo-1a,2,3a,4,8,10,12,12a-octahydro-1H-2,12-methanocyclopropa[e]pyrido[1′,2′:4,5]pyrazino[2,1-b][1,3]oxazepine-7-carboxamide], for which, in the series with HIV-IIIb, the EC50 worked out at 1.5 nM. In “in vitro”, this compound displayed a CC50 at 5 days of 14.1 µM.
Consider `O=C(NCc1ccc(F)cc1F)c1cn2c(c(O)c1=O)C(=O)N1[C@@H]3C[C@H](O[C@@H]1C2)[C@H]1C[C@H]13` [Compound 7, (1aS,2S,3aR,12R,12aR)-N-(2,4-difluorobenzyl)-9-hydroxy-8,10-dioxo-1a,2,3a,4,8,10,12,12a-octahydro-1H-2,12-methanocyclopropa[e]pyrido[1′,2′:4,5]pyrazino[2,1-b][1,3]oxazepine-7-carboxamide], for which, in the series with HIV-IIIb, the EC50 was determined as 2.7 nM. The CC50 at 5 days in the series “in vitro” came to 4.83 µM.
For `O=C(NCc1c(F)cc(F)cc1F)c1cn2c(c(O)c1=O)C(=O)N1[C@@H]3C[C@H](O[C@@H]1C2)[C@H]1C[C@H]13` [Compound 10, (1aS,2S,3aR,12R,12aR)-9-hydroxy-8,10-dioxo-N-(2,4,6-trifluorobenzyl)-1a,2,3a,4,8,10,12,12a-octahydro-1H-2,12-methanocyclopropa[e]pyrido[1′,2′:4,5]pyrazino[2,1-b][1,3]oxazepine-7-carboxamide], the EC50 in the series with HIV-IIIb is 1.7 nM. In “in vitro”, the CC50 at 5 days was determined as 7.59 µM.
On to `O=C(NCc1c(F)cc(F)cc1F)c1cn2c(c(O)c1=O)C(=O)N1C(C2)O[C@@H]2C[C@H]1[C@H]1C[C@H]12` (stereo partly drawn) [Compound 11, (1aR,2R,10aR,11S,11a5)-5-hydroxy-4,6-dioxo-N-(2,4,6-trifluorobenzyl)-1a,2,4,6,10,10a,11,11a-octahydro-1H-2,11-methanocyclopropa[4,5]pyrido[1,2-a]pyrido[1,2-d]pyrazine-7-carboxamide], for which the EC50 in the series on HIV-IIIb was 1.5 nM. This compound returned a 50% cytotoxic concentration (CC50) at 5 days in the series “in vitro” of 11 µM.
As for `O=C(NCc1ccc(F)cc1F)c1cn2c(c(O)c1=O)C(=O)N1C(C2)O[C@@H]2C[C@H]1[C@@H]1[C@H]2C1(F)F` (stereo partly drawn) [Compound 5, (1aR,2R,12S,12a5)-N-(2,4-difluorobenzyl)-1,1-difluoro-9-hydroxy-8,10-dioxo-1a,2,3a,4,8,10,12,12a-octahydro-1H-2,12-methanocyclopropa[e]pyrido[1′,2′:4,5]pyrazino[2,1-b][1,3]oxazepine-7-carboxamide], in the series on HIV-IIIb, the EC50 was found to be 1.6 nM. This compound had a CC50 at 5 days in the series “in vitro” of 50.5 µM.
In the case of `C[C@@H](NC(=O)c1cn2c(c(O)c1=O)C(=O)N1[C@@H]3C[C@H](O[C@@H]1C2)[C@H]1C[C@H]13)c1ccc(F)cc1F` [Compound 3, (1aS,2S,3aR,12R,12aR)-N-((R)-1-(2,4-difluorophenyl)ethyl)-9-hydroxy-8,10-dioxo-1a,2,3a,4,8,10,12,12a-octahydro-1H-2,12-methanocyclopropa[e]pyrido[1′,2′:4,5]pyrazino[2,1-b][1,3]oxazepine-7-carboxamide], the EC50 in the series on HIV-IIIb amounted to 9.9 nM. The CC50 at 5 days in “in vitro” was 4.1 µM.
In the case of `O=C(NCc1ccc(F)cc1F)c1cn2c(c(O)c1=O)C(=O)N1[C@H](C2)[C@@H]2C[C@H]1[C@H]1C[C@@H]21` [Compound 8, (1aS,2S,10aS,11R,11aR)-N-(2,4-difluorobenzyl)-5-hydroxy-4,6-dioxo-1a,2,4,6,10,10a,11,11a-octahydro-1H-2,11-methanocyclopropa[4,5]pyrido[1,2-a]pyrido[1,2-d]pyrazine-7-carboxamide], in the series with HIV-IIIb, the EC50 stood at 1.4 nM. The compound further showed a CC50 at 5 days in “in vitro” of 8.84 µM.
Consider `C[C@@H](NC(=O)c1cn2c(c(O)c1=O)C(=O)N1C3CC(O[C@H]1C2)[C@@H]1C[C@H]31)c1ccc(F)cc1F` (some centres unmarked) [Compound 4], for which the EC50 in the series with HIV-IIIb worked out at 8.4 nM. Further, the CC50 at 5 days in the series “in vitro” is 12.8 µM.
In the case of `O=C(NCc1c(F)cc(F)cc1F)c1cn2c(c(O)c1=O)C(=O)N1[C@@H]3C[C@@H]([C@H]4C[C@H]43)[C@@H]1C2` [Compound 12, (1aR,2R,10aR,11S,11aS)-5-hydroxy-4,6-dioxo-N-(2,4,6-trifluorobenzyl)-1a,2,4,6,10,10a,11,11a-octahydro-1H-2,11-methanocyclopropa[4,5]pyrido[1,2-a]pyrido[1,2-d]pyrazine-7-carboxamide], the EC50 with HIV-IIIb was 2.9 nM. Also, it took 22.8 µM to reach half-maximal cytotoxicity in the series “in vitro” (CC50 at 5 days).
With `O=C(N[C@@H](c1ccc(F)cc1F)C(F)(F)F)c1cn2c(c(O)c1=O)C(=O)N1[C@@H]3C[C@H](O[C@@H]1C2)[C@H]1C[C@H]13` [Compound 1, (1aS,2S,3aR,12R,12aR)-N-((S)-1-(2,4-difluorophenyl)-2,2,2-trifluoroethyl)-9-hydroxy-8,10-dioxo-1a,2,3a,4,8,10,12,12a-octahydro-1H-2,12-methanocyclopropa[e]pyrido[1′,2′:4,5]pyrazino[2,1-b][1,3]oxazepine-7-carboxamide], in the series with HIV-IIIb, the EC50 amounted to 9.6 nM. This compound came in with a CC50 at 5 days in the series “in vitro” of 14.1 µM.

As a reminder, the EC50 is the concentration needed to bring the measured effect to its halfway point. One may read the CC50 as the concentration giving 50% cytotoxicity. Higher therefore signals better tolerance by the cells.
